Laboratory results as given in EPA's ToxValDB 9.5.
Several values for one entry are separate records, joined by “and”; a condition that tells them apart may be missing. Identical values can stand only once.

Tests used:
Rattus norvegicus [1] = tested on: Rattus norvegicus
Mus musculus [2] = tested on: Mus musculus
Rattus norvegicus [3] = settings: oral, gavage
Rattus norvegicus [4] = settings: oral
Canidae = settings: chronic, oral, diet, Dog Other
Oryctolagus sp. = settings: acute, dermal, New Zealand
Mus musculus [5] = settings: subchronic, duration: 30 days, oral, gavage, C57BL/6
[6] = short-term, duration: 2 weeks, oral, gavage, Fischer 344
[7] = subchronic, duration: 13 weeks, inhalation, Sprague-Dawley
[8] = subchronic, duration: 13 weeks, oral, gavage, F, Fischer 344
[9] = subchronic, duration: 13 weeks, oral, gavage, M, Fischer 344
[10] = short-term, duration: 2 weeks, oral, gavage, B6C3F1
[11] = subchronic, duration: 13 weeks, inhalation, B6C3F1
[12] = subchronic, duration: 13 weeks, oral, gavage, B6C3F1
[13] = Hershberger, duration: 7 days, gavage, Sprague-Dawley, active + Antiandrogenic + anti-androgenic + no AST effects in pairwise comparison but increasing trend for LABC and DL prostate / …
[14] = duration: 1 years, M/F, tremors
[15] = acute, oral, gavage, Sprague-Dawley
[16] = reproduction developmental, duration: 4 weeks, Inhalation, F, CD
[17] = reproduction developmental, duration: 4 weeks, Inhalation, M, CD
[18] = reproduction developmental, duration: 10 days, oral, gavage, Crl:CD(SD)
[19] = duration: 2 years, M/F, elevated alkaline phosphatase + Increase in thyroid/body weight ratio + slight increase in liver weights
[20] = M, Cardiovascular: Heart: Heart Weight, Relative + Hepatic: Liver: Liver Weight, Relative + Immune: Multi-Organ: Immunoglobulin M (IgM), Serum…
[21] = M, Hepatic: Liver: Liver Weight, Relative
[22] = duration: 1 years, M/F, Liver effects + organ weight changes

With `C=CC1CC=CCC1` (stereo unspecified) [4-Vinylcyclohexene] the LC50 (Rattus norvegicus [1]; acute, inhalation) was 27000 mg/m3 and < 35400 mg/m3, the LD50 (Rattus norvegicus [1]; acute, oral, gavage, Carworth Wistar) was 2560 mg/kg and the NOAEC (Rattus norvegicus [1]; short-term, duration: 2 weeks, inhalation, F, Sprague-Dawley) was 6640 mg/m3. The NOAEC (Rattus norvegicus [1]; short-term, duration: 2 weeks, inhalation, M, Sprague-Dawley) was 3190 mg/m3, the LOAEL (Rattus norvegicus [1]; [6]) was 1250 mg/kg-day and the NOAEL (Rattus norvegicus [1]; [6]) was 600 mg/kg-day. It also gave an LOAEL (Rattus norvegicus [1]; [7]) of 4420 mg/m3, an NOAEL (Rattus norvegicus [1]; [7]) of 1110 mg/m3 and an LOAEL (Rattus norvegicus [1]; [8]) of 800 mg/kg-day. For the same molecule, the NOAEL (Rattus norvegicus [1]; [8]) was 400 mg/kg-day, the LOAEL (Rattus norvegicus [1]; [9]) was 400 mg/kg-day and the NOAEL (Rattus norvegicus [1]; [9]) was 200 mg/kg-day. The LC50 (Mus musculus [2]; acute, inhalation) was 46900 mg/m3, the NOAEL (Mus musculus [2]; short-term, duration: 2 weeks, inhalation, B6C3F1) was 3190 mg/m3 and the LOAEL (Mus musculus [2]; [10]) was 2500 mg/kg-day. The NOAEL (Mus musculus [2]; [10]) was 1250 mg/kg-day, the LOAEL (Mus musculus [2]; [11]) was 4420 mg/m3 and the NOAEL (Mus musculus [2]; [11]) was 1110 mg/m3. The LOAEL (Mus musculus [2]; [12]) was 1200 mg/kg-day, the NOAEL (Mus musculus [2]; [12]) was 600 mg/kg-day and the NOEL (Rattus norvegicus [3]; subchronic, duration: 13 weeks, M/F, Fischer 344, Deaths + Body Weight Changes: decrease + Histopathology: Kidney-Hyaline droplet degeneration Glandular stomach-Inflammation) was < 50 mg/kg-day. For the same molecule, the NOEL (Rattus norvegicus [3]; subchronic, M, Sprague-Dawley, Clinical Observation: Salivation Locomotor activity decrease + Relative Organ Weight: Kidney increase + Histopathology: Stomach/Glandular …) was < 2 mg/kg-day.
`Cc1c(COC(=O)[C@@H]2[C@H](/C=C(\Cl)C(F)(F)F)C2(C)C)cccc1-c1ccccc1` [Bifenthrin] gave an LOEL (Rattus norvegicus [4]; [13]) of 13.5 mg/kg-day, an NOEL (Rattus norvegicus [4]; [13]) of 10 mg/kg-day and an NOEL (Rattus norvegicus [4]; Hershberger, duration: 10 days, gavage, Sprague-Dawley, inactive + Negative + Negative + neither + negative) of 10 mg/kg-day. The LEL (Rattus norvegicus [4]; uterotrophic, duration: 3 days, Active) was 13.2 mg/kg-day, the LEL (Canidae; [14]) was 3 mg/kg-day and the NOEL (Canidae; [14]) was 1.5 mg/kg-day. It also gave an NOEL (Rattus norvegicus [3]; short-term, duration: 28 days, M/F, Clinical Observation: Tremor) of 50 ppm.
For `Nc1c(Cl)c(Cl)nc(C(=O)O)c1Cl` [Picloram], the NOEL (Canidae; duration: 6 months, M/F, increased liver weight) was 7 mg/kg-day and the LEL (Canidae; duration: 6 months, M, increased liver weight) was 35 mg/kg-day.
Work on `C1CN(SSN2CCOCC2)CCO1` [4,4'-Dithiodimorpholine] yielded an LD50 (Rattus norvegicus [1]; [15]) of 5600 mg/kg, an LOAEL (Rattus norvegicus [1]; [16]) of 29 mg/m3 and an NOAEL (Rattus norvegicus [1]; [16]) of 9.9 mg/m3. The LOAEL (Rattus norvegicus [1]; [17]) was 9.9 mg/m3, the NOAEL (Rattus norvegicus [1]; [17]) was 1.1 mg/m3 and the LOAEL (Rattus norvegicus [1]; [18]) was 500 mg/kg-day. For the same molecule, the NOAEL (Rattus norvegicus [1]; [18]) was 100 mg/kg-day, the LD50 (Oryctolagus sp.; occlusive) was > 5010 mg/kg and the LC50 (Mus musculus [2]; acute, inhalation) was 1620 mg/m3.
For `Cc1[nH]c(=O)n(C(C)(C)C)c(=O)c1Cl` [Terbacil], the LEL (Canidae; [19]) was 6.25 mg/kg-day and the NOEL (Canidae; [19]) was 1.25 mg/kg-day.
For `c1ccc(-c2ccccc2)cc1` [Biphenyl], the LD50 (Rattus norvegicus [1]; acute, oral, Sprague-Dawley) was 2400 mg/kg, the LD50 (Rattus norvegicus [1]; [15]) was 3280 mg/kg and the NOAEL (Rattus norvegicus [1]; chronic, duration: 750 days, oral, diet) was 78 mg/kg-day. For the same molecule, the NOAEL (Rattus norvegicus [1]; developmental, duration: 10 days, oral, gavage, Wistar) was 500 mg/kg-day, the NOAEL (Rattus norvegicus [1]; reproduction developmental, duration: 10 days, oral, gavage, F, Wistar) was 500 mg/kg-day and the NOAEL (Rattus norvegicus [1]; reproduction developmental, duration: 750 days, oral, diet, generation: F0) was 1000 ppm. For the same molecule, the NOAEL (Rattus norvegicus [1]; reproduction developmental, duration: 750 days, oral, diet, generation: F1) was 5000 ppm, the NOAEL (Rattus norvegicus [1]; reproduction developmental, oral, diet, Long-Evans, generation: F0) was 1000 ppm and the LD50 (Oryctolagus sp.) was > 5010 mg/kg. It also gave an LOAEL (Mus musculus [2]; subchronic, duration: 13 weeks, inhalation, CD1) of 158 mg/m3.
With `O=C(O)C(F)(F)C(F)(F)C(F)(F)OC(F)(F)F` [Perfluoro(4-methoxybutanoic acid)] the LOAEL (Mus musculus [5]; F, Cardiovascular: Heart: Heart Weight, Relative + Hepatic: Liver: Liver Weight, Relative + Immune: Multi-Organ: Immunoglobulin M (IgM), Serum…) was 50 mg/kg-day, the LOAEL (Mus musculus [5]; [20]) was 50 mg/kg-day and the NOAEL (Mus musculus [5]; [20]) was 5 mg/kg-day. It also gave an NOAEL (Mus musculus [5]; M, Cardiovascular: Heart: Heart Weight, Relative + Immune: Multi-Organ: Immunoglobulin M (IgM), Serum + Immune: Multi-Organ: Natural Killer (NK…) of 50 mg/kg-day, an LOAEL (Mus musculus [5]; [21]) of 50 mg/kg-day and an NOAEL (Mus musculus [5]; [21]) of 5 mg/kg-day.
For `CCCCCCCCCCCCCCC` [Pentadecane], the LD50 (Mus musculus [2]; acute, injection, intravenous) was 3490 mg/kg.
In the case of `Clc1ccccc1-c1nnc(-c2ccccc2Cl)nn1` [Clofentezine], the LEL (Canidae; [22]) is reported as 25 mg/kg-day and the NOEL (Canidae; [22]) is reported as 1.25 mg/kg-day.
